We go through three compounds from patent US9040713B2, “Methods of managing blood sugar levels and compositions related thereto” (EMORY UNIVERSITY, priority 2010, dated 2015).

Experiment [1] has as its system C57BL/6J mice. The experiment can be described thus: Blood glucose level test in C57BL/6J mice. The class given is in vivo, mouse. The note with it: for time until decrease of blood glucose: DDN 20 mg/kg oral, insulin 1 U/kg i.p. How it is done: (A) DDN reduces blood glucose in C57BL/6J mice. […] Blood glucose was monitored before and after dosing at various time points as indicated (*: P<0.05, **: P<0.01; ***: P<0.001, n=10-13, Two-way ANOVA vs vehicle). (B) DDN provokes IR phosphorylation and its downstream signaling in C57BL/6J mice. Three month-old C57BL/6J mice were starved for 12 h and then orally administrated with vehicle (0.5% methylcellulose), DDN (20 mg/kg) or 2NH2-NQ (20 mg/kg). Cell lysates were prepared from liver and muscle tissues collected at 3, 4, and 5 h after drug administration and analyzed by immunoprecipitation and immunoblotting. (C) DDN quickly activates IR phosphorylation and its downstream signaling. Three-month-old C57BL/6J mice were starved for 12 h and then injected with vehicle, 5 mg/kg DDN or 5 mg/kg 2NH2-NQ through vena cava. After 5 min, the liver was collected and analyzed by immunobloting using specific antibodies.
(§1) (A) 4524-E7 provokes IR phosphorylation in various tissues of mice. Three-month-old C57BL/6J mice were starved for 12 h and then dosed with vehicle (0.5% methylcellulose) or 4524-E7 (20 mg/kg). Cell lysates from liver, muscle, and WAT were prepared at 3, 4, and 5 h after drug administration and analyzed by immunoblotting. (B) Basal and insulin-stimulated hepatic glucose production rates were measured by hyperinsulinemic-euglycemic clamp. […] (C) Hypoglycemic effect of 4524-E7 in C57BL/6J mice. C57BL/6J mice were starved for 12 h and then orally administrated with vehicle (0.5% methylcellulose) or 4524-E7 (5 mg/kg). Blood glucose was monitored at different time points as indicated (n=8, *: P<0.05, two-way ANOVA). (D) Hypoglycemic effect in db/db mice. db/db mice were starved for 12 h and then orally injected with vehicle (0.5% methylcellulose) or 4524-E7 (5 mg/kg). Blood glucose was monitored at different time points as indicated (n=5, *: P<0.05, two-way ANOVA). (E) Glucose tolerance test in ob/ob mice. The mice were starved for 12 hours and then orally administrated with vehicle or 4524-E7 (5 mg/kg). A bonus of glucose (2 gm/kg) was injected intraperitoneally 1 hour later. Blood glucose was then measured at 30 min intervals (n=13, *: P<0.05; **: P<0.01, two-way ANOVA).
After a 12 h fasting, C57B5L/6J and db/db mice were bled from the tail vein for a baseline measurement with a glucometer (Accu-Chek; Roche Diagnostics, Indianapolis, Ind.). Afterward, animals were orally administered 5 mg/kg compound in 0.5% methylcellulose through a feeding needle. Blood glucose levels were measured at hourly intervals over 5 h.

In experiment [2] the test system is 3T3-L1 adipocytes. The experiment can be described thus: [3H] 2-deoxyglucose transport in 3T3-L1 adipocytes. The class given is cell-based, mouse. As to conditions: for glucose uptake after depletion of IR: siRNA against IR. The protocol:
NIH 3T3-L1 preadipocytes and MEFs were grown in standard media. MEF were continuously passed in standard media to generate spontaneously immortalizedfibroblasts. […] 3T3-L1 adipocytes were reseeded into 12-well plates 10 to 12 days after differentiation. […] The transport reaction was initiated by adding 2-deoxyglucose (final 100 uM) with [3H] 2-deoxyglucose (0.2 μCi/well). After a 10 min incubation period, cells were washed three times with ice-cold PBS, solubilized in 1% SDS, 1M NaOH. After neutralization, radioactivity was measured by scintillation counting

The subject of experiment [3] is db/db mice. The experiment can be described thus: Blood glucose level test in db/db mice. The note with it: for duration of blood glucose lowering effect: DDN 5 mg/kg oral, insulin 1 U/kg i.p. The experiment is classed as in vivo, mouse. How it is done:
Three-month-old mice were starved for 12 h and then orally administrated with vehicle (0.5% methylcellulose) or DDN (5 mg/kg). Cell lysates were prepared from liver and muscle tissues collected at 1 and 2 h after drug administration and analyzed by immunoprecipitation and immunoblotting. […] Three-month-old mice were starved for 12 h and then orally administrated with vehicle (0.5% methylcellulose) or DDN (5 mg/kg). Cell lysates were prepared from liver and muscle tissues collected at 1 and 2 h after drug administration and analyzed by immunoprecipitation and immunoblotting. (C) Hypoglycemic function of DDN in db/db mice. The animals were starved for 12 h and then orally injected with vehicle (0.5% methylcellulose) or DDN (5 mg/kg). […] Blood glucose was monitored before and after drug administration at 1-hour intervals (*: P<0.05, **: P<0.01, n=5, Two-way ANOVA vs vehicle). (D) DDN improves the glucose tolerance in ob/ob mice. The animals were starved for 12 h and then orally dosed with vehicle (0.5% methylcellulose) or DDN (5 mg/kg). […] A bonus of glucose (2 gm/kg) was injected intraperitoneally 1 hour later. Blood glucose was measured at 30-min intervals (*: P<0.05, **:P<0.01, n=5, Two-way ANOVA vs vehicle control).
as §1
After a 12 h fasting, C57B5L/6J and db/db mice were bled from the tail vein for a baseline measurement with a glucometer (Accu-Chek; Roche Diagnostics, Indianapolis, Ind.). […] Blood glucose levels were measured at hourly intervals over 5 h.

Experiment [4] deals with wild-type MEF cells. Description: [3H] 2-deoxyglucose transport in wild-type MEF cells. As to conditions: insulin 100 nM 15 min or compound 5 μM 30 min. The experiment is classed as cell-based, mouse. The protocol:
Insulin signaling in the cell lysates were tested by immunoblotting. (B) DDN stimulates glucose uptake. […] [3H]2-deoxyglucose was then added, and the cells were further incubated for 10 min. [3H]2-deoxyglucose uptake by adipocytes was measured by scintillation counting (*: P<0.05 **: P<0.01 vs control, Student's t-test, n=3). (C) DDN synergizes insulin's signaling. […] Cell lysates were then prepared for Western blot using specific antibodies as indicated. […] 3H-2-deoxyglucose was then added, and the cells were further incubated for 10 min. 3H-2-deoxyglucose uptake by adipocytes was measured by scintillation counting (*: P<0.05; **: P<0.01, Student's t-test, n=3). (E) IR is necessary for DDN to induce ERK phosphorylation. Differentiated 3T3-L1 adipocytes were transfected with control siRNA or siRNA against IR. […] Cell lysates were analyzed by Western blot. (F) The glucose uptake induced by DDN in p85α knockout MEF cells. […] The uptake of 3H-2-deoxyglucose was monitored by liquid scintillation counting (*: P<0.05; **: P<0.01 vs control, Student's t-test, n=3).
(A) 4524-E7 activates IR phosphorylation and its downstream signaling in 3T3-L1 adipocytes. […] The cells were lysed, and immunoprecipitated with PY20, and followed by Western blot using specific antibodies. (B) 4524-E7 stimulates glucose uptake in 3T3-L1 adipocytes. […] [3H]2-deoxyglucose was added, and the cells were further incubated for 10 min. The amount of [3H]2-deoxyglucose taken by adipocytes was measured. (C) 4524-E7 inhibits fatty acid oxidation. […] Results were normalized to DMSO-treated cells and expressed as mean±S.E.M. (*: P<0.05; **:P<0.01, Student's t-test, n=3). (D) IR knockdown in adipocytes decreases IR signaling by 4524-E7. […] Cells lysates were collected and analyzed by Western blot. […] 2-deoxyglucose was monitored by liquid scintillation counter. Results were expressed as mean±S.E.M. (*: P<0.05; **:P<0.01, Student's t-test, n=3).
NIH 3T3-L1 preadipocytes and MEFs were grown in standard media. […] After neutralization, radioactivity was measured by scintillation counting

On to `O=C1c2ccccc2C(=O)C2SC(Nc3ccc(Cl)cc3)=NC12` (stereo not shown) [4524-E7, 2-((4-chlorophenyl)amino)naphtho[2,3-d]thiazole-4,9(3aH,9aH)-dione], for which the blood glucose in experiment [1] (5 mg/kg single oral administration, 3˜4 h after) is given as 70 % of basal level; in experiment [3] (5 mg/kg oral, one hour after administration), “about 50 % of the initial value”. Also, in experiment [2] (5 μM, 30 min), the “glucose uptake as compared to control” value is on record as “nearly quadrupled”. Further, the “lowest concentration significantly elevating glucose uptake” value in experiment [2] (30 min) turned out to be 1 µM. In experiment [2] (4524-E7 plus 10 nM insulin, versus the two agents alone), the “glucose uptake in combination with insulin” value is listed as “additively escalated”. The “glucose uptake after depletion of IR” value in experiment [2] is “substantially diminished”. In addition, in experiment [4], the “[3H]-2-deoxyglucose uptake” value is “triggered robust [3H]-2-deoxyglucose uptake”.
With `CC(=O)Oc1ccc(OC(C)=O)c2c1C(=O)C(Cl)=C(Cl)C2=O` [DDN, 5,8-diacetyloxy-2,3-dichloro-1,4-naphthoquinone], the “blood glucose as compared to vehicle control” value in experiment [1] (20 mg/kg oral, 12 h starved) is recorded as “significantly reduced blood glucose”; in experiment [3] (5 mg/kg oral, one h after administration), “lower blood glucose was found in db/db mice”. The “time until decrease of blood glucose” value in experiment [1] was determined as 3 h. Besides, the “glucose uptake in combination with insulin” value in experiment [2] (5 nM DDN plus 5 nM insulin) is “further increased”. The 3H-deoxyglucose uptake entry in experiment [2] (DDN 0.1, 0.25, 0.5 μM, 30 min) was “escalated 3H-deoxyglucose uptake in a dose-dependent manner”. In experiment [3], the “duration of blood glucose lowering effect” value is recorded as “sustain till the end of the experiment”. The “[3H]-2-deoxyglucose uptake” value in experiment [4] is “triggered robust 3H-deoxyglucose uptake”.
“insulin: insulin, used as positive control”: in experiment [1], the “time until decrease of blood glucose” value is given as “Thirty min”. Further, the 3H-deoxyglucose uptake result in experiment [2] (5 nM, alone) was “significantly increased”. The “glucose uptake after depletion of IR” value in experiment [2] is “substantially diminished”. Besides, in experiment [3], the “duration of blood glucose lowering effect” value was 2 h. The “[3H]-2-deoxyglucose uptake” value in experiment [4] was “triggered robust [3H]-2-deoxyglucose uptake”.
